How the values were obtained:
[1] = molecular target: T1, VEGF (Homo sapiens, UniProt P15692); assay: Growth factor binding assay (SPR solution affinity), VEGF; conditions: HBS-EP buffer, 25° C.
T1 sequence (P15692 207-395): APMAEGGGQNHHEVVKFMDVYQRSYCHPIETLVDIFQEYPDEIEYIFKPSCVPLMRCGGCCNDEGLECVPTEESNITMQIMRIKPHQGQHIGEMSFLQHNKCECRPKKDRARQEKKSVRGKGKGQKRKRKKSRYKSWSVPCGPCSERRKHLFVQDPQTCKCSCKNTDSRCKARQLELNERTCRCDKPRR
In short: (§1)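 Kd measured by SPR solution affinity: fixed growth factor with varying ligand competing for heparin-coated sensorchip, 25 °C. Buffer HBS-EP pH 7.4 (150 mM NaCl) for FGF-1 and VEGF; FGF-2 with 0.3 M NaCl. Duplicate values averaged.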

[2] = molecular target: FGF-1 (Homo sapiens, UniProt P05230); assay: Growth factor binding assay (SPR solution affinity), FGF-1; conditions: SPR, HBS-EP buffer, 25° C.; read-out: Kd FGF-1
[3] = molecular target: FGF-2 (Homo sapiens, UniProt P09038); assay: Growth factor binding assay (SPR solution affinity), FGF-2; conditions: SPR, HBS-EP buffer containing 0.3 M NaCl, 25° C.; read-out: Kd FGF-2
In short: as §1

[4] = system: pooled normal human plasma; assay: Anticoagulant activity, APTT; conditions: 0.1 mg/mL in normal pooled human plasma
Protocol: APTT measurements were performed on a STAGO STA-Compact Coagulation Analyser using standard protocols according to the manufacturer's instructions. Unfractionated heparin (UFH) was used as a control.

[5] = system: normal pooled human plasma; assay: Anticoagulant activity, Heptest; conditions: 0.1 mg/mL in normal pooled human plasma
[6] = system: HSV-2; assay: Viral plaque number-reduction assay, HSV-2; conditions: Human alphaherpesvirus 2, read-out: HSV-2 IC50
In short: (§2)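 200 PFU virus premixed 10 min with compound (100 μg/mL screen) and kept throughout infection. HSV plaques in GMK AH1 cells, RSV (strain A-2) in HEp-2 cells. Methylcellulose overlay, 37 °C, crystal violet staining after 2 days (HSV-2) or 3 days (HSV-1); plaque numbers counted.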

[7] = system: RSV; assay: Viral plaque number-reduction assay, RSV; conditions: human respiratory syncytial virus, read-out: RSV IC50
In short: as §2

[8] = molecular target: T2, recombinant human heparanase (Homo sapiens, UniProt Q9Y251); assay: Heparanase inhibition assay (fondaparinux cleavage, WST-1); conditions: read-out: Ki Heparanase; IC50 converted into Ki; fondaparinux 100 μM, pH 5.0
T2 sequence (Q9Y251 158-543 limits assumed): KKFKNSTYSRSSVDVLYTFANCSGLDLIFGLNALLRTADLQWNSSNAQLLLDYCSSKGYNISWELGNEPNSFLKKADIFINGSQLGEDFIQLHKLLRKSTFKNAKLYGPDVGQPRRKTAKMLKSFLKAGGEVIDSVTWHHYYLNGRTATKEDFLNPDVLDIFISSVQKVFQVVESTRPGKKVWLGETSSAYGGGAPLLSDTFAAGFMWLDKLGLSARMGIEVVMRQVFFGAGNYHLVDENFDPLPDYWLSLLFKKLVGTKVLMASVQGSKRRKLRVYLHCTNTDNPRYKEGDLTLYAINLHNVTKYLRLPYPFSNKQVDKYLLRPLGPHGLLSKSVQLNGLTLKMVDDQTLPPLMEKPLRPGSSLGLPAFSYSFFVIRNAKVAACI
T2 sequence (Q9Y251 36-109 limits assumed): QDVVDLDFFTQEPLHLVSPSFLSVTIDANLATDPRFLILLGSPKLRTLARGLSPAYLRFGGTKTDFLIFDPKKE

FGF-2, sequence (P09038 143-288, species assumed): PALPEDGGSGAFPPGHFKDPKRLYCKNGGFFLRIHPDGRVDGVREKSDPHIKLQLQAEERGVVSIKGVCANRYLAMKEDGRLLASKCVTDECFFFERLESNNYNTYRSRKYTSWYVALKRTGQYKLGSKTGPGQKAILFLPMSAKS
FGF-1, sequence (P05230 whole entry, species assumed): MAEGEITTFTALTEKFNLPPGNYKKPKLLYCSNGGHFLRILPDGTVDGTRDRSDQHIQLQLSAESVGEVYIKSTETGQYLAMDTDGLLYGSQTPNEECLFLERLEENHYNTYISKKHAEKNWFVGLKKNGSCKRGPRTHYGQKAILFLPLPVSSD

| Structure (SMILES) | Kd [1] | Kd [2] | Kd [3] | APTT [4] | Heptest [5] | IC50 [6] | IC50 [7] | Ki [8] |
| --- | --- | --- | --- | --- | --- | --- | --- | --- |
| CCCCCCCCCCCCCCCCCC(=O)NCCCO[C@@H]1O[C@H](COS(=O)(=O)[O-])[C@@H](O[C@H]2O[C@H](COS(=O)(=O)[O-])[C@@H](O[C@H]3O[C@H](COS(=O)(=O)[O-])[C@@H](O[C@H]4O[C@H](COS(=O)(=O)[O-])[C@@H](OS(=O)(=O)[O-])[C@H](OS(=O)(=O)[O-])[C@H]4OS(=O)(=O)[O-])[C@H](OS(=O)(=O)[O-])[C@H]3OS(=O)(=O)[O-])[C@H](OS(=O)(=O)[O-])[C@H]2OS(=O)(=O)[O-])[C@H](OS(=O)(=O)[O-])[C@H]1OS(=O)(=O)[O-].[Na+].[Na+].[Na+].[Na+].[Na+].[Na+].[Na+].[Na+].[Na+].[Na+].[Na+].[Na+].[Na+] [Compound 128, 3-Stearamidopropyl 2,3,4,6-tetra-O-sulfo-α-D-glucopyranosyl-(1→4)-2,3,6-tri-O-sulfo-α-D-glucopyranosyl-(1→4)-2,3,6-tri-O-sulfo-α-D-glucopyranosyl-(1→4)-2,3,6-tri-O-sulfo-β-D-glucopyranoside, tridecasodium salt] | 14 ± 4 nM | 4.94 ± 0.08 nM | 311 ± 25 nM | 65.8 s | 32.2 s | 1 µg/mL | 1.4 µg/mL | 9.1 ± 0.3 nM |
| CC(C)CCC[C@@H](C)[C@H]1CC[C@H]2[C@@H]3CC[C@H]4C[C@@H](O[C@H]5O[C@H](COS(=O)(=O)O)[C@@H](OS(=O)(=O)O)[C@H](OS(=O)(=O)O)[C@@H]5O[C@H]5O[C@H](COS(=O)(=O)O)[C@@H](OS(=O)(=O)O)[C@H](OS(=O)(=O)O)[C@@H]5OS(=O)(=O)O)CC[C@]4(C)[C@H]3CC[C@]12C [Compound 33, 3β-Cholestanyl 2,3,4,6-tetra-O-sodium sulfonato-α-D-mannopyranosyl-(1→2)-3,4,6-tri-O-sodium sulfonato-α-D-mannopyranoside] | 1300 ± 300 nM | 270 ± 30 nM | 1570 ± 150 nM | 40.6 s | 25.5 s | 0.7 µg/mL | 1.8 µg/mL | 22.3 ± 1.6 nM |
